Test results: PubChem BioAssay (NCI)
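Test compounds were applied to cells in 96-well plates for 48 hours at 5 doses. TGI: total growth inhibition.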

Columns and labels:
Test in all cases: NCI anticancer screen, dose series, 48 h
786-0 renal = test system: 786-0 renal
A498 renal = test system: A498 renal
A549 NSCLC = test system: A549 NSCLC
ACHN renal = test system: ACHN renal
CAKI-1 renal = test system: CAKI-1 renal
CCRF-CEM leukemia = test system: CCRF-CEM leukemia
COLO 205 colon = test system: COLO 205 colon
DU-145 prostate = test system: DU-145 prostate
EKVX NSCLC = test system: EKVX NSCLC
HCC-2998 colon = test system: HCC-2998 colon
HCT-116 colon = test system: HCT-116 colon
HCT-15 colon = test system: HCT-15 colon
HL-60(TB) leukemia = test system: HL-60(TB) leukemia
HOP-62 NSCLC = test system: HOP-62 NSCLC
HOP-92 NSCLC = test system: HOP-92 NSCLC
HS 578T breast = test system: HS 578T breast
HT29 colon = test system: HT29 colon
IGROV1 ovarian = test system: IGROV1 ovarian
K-562 leukemia = test system: K-562 leukemia
KM12 colon = test system: KM12 colon
LOX IMVI melanoma = test system: LOX IMVI melanoma
M14 melanoma = test system: M14 melanoma
MALME-3M melanoma = test system: MALME-3M melanoma
MCF7 breast = test system: MCF7 breast
MDA-MB-231 breast = test system: MDA-MB-231 breast
MDA-MB-435 = test system: MDA-MB-435
MDA-N = test system: MDA-N
MOLT-4 leukemia = test system: MOLT-4 leukemia
NCI-H226 lung = test system: NCI-H226 lung
NCI-H23 lung = test system: NCI-H23 lung
NCI-H460 lung = test system: NCI-H460 lung
NCI-H522 lung = test system: NCI-H522 lung
NCI/ADR-RES ovarian = test system: NCI/ADR-RES ovarian
OVCAR-3 ovarian = test system: OVCAR-3 ovarian
OVCAR-4 ovarian = test system: OVCAR-4 ovarian
OVCAR-5 ovarian = test system: OVCAR-5 ovarian
OVCAR-8 ovarian = test system: OVCAR-8 ovarian
PC-3 prostate = test system: PC-3 prostate
RPMI-8226 leukemia = test system: RPMI-8226 leukemia
RXF 393 renal = test system: RXF 393 renal
SF-268 CNS = test system: SF-268 CNS
SF-295 CNS = test system: SF-295 CNS
SF-539 CNS = test system: SF-539 CNS
SK-MEL-2 melanoma = test system: SK-MEL-2 melanoma
SK-MEL-28 melanoma = test system: SK-MEL-28 melanoma
SK-MEL-5 melanoma = test system: SK-MEL-5 melanoma
SK-OV-3 ovarian = test system: SK-OV-3 ovarian
SN12C renal = test system: SN12C renal
SNB-19 CNS = test system: SNB-19 CNS
SNB-75 CNS = test system: SNB-75 CNS
SR leukemia = test system: SR leukemia
SW-620 colon = test system: SW-620 colon
T-47D breast = test system: T-47D breast
TK-10 renal = test system: TK-10 renal
U251 CNS = test system: U251 CNS
UACC-257 melanoma = test system: UACC-257 melanoma
UACC-62 melanoma = test system: UACC-62 melanoma
UO-31 renal = test system: UO-31 renal

## CC(C)(C)COC(=O)C(C)(C)NC(=O)C(CC(=O)OCc1ccccc1)NC(=O)OCc1ccccc1 (stereo not given)
786-0 renal
  TGI: > 100 µM
A498 renal
  TGI: 79.5 µM
A549 NSCLC
  TGI: > 100 µM
ACHN renal
  TGI: > 100 µM
CAKI-1 renal
  TGI: > 100 µM
CCRF-CEM leukemia
  TGI: > 100 µM
COLO 205 colon
  TGI: 44 µM
DU-145 prostate
  TGI: > 100 µM
EKVX NSCLC
  TGI: > 100 µM
HCC-2998 colon
  TGI: > 100 µM
HCT-116 colon
  TGI: > 100 µM
HCT-15 colon
  TGI: 69.1 µM
HL-60(TB) leukemia
  TGI: > 100 µM
HOP-62 NSCLC
  TGI: > 100 µM
HOP-92 NSCLC
  TGI: > 100 µM
HS 578T breast
  TGI: > 100 µM
HT29 colon
  TGI: 87.9 µM
IGROV1 ovarian
  TGI: > 100 µM
K-562 leukemia
  TGI: > 100 µM
KM12 colon
  TGI: > 100 µM
LOX IMVI melanoma
  TGI: > 100 µM
M14 melanoma
  TGI: > 100 µM
MALME-3M melanoma
  TGI: 81.3 µM
MCF7 breast
  TGI: > 100 µM
MDA-MB-231 breast
  TGI: > 100 µM
MDA-MB-435
  TGI: 89.9 µM
MDA-N
  TGI: > 100 µM
MOLT-4 leukemia
  TGI: > 100 µM
NCI-H226 lung
  TGI: 85.2 µM
NCI-H23 lung
  TGI: > 100 µM
NCI-H460 lung
  TGI: > 100 µM
NCI-H522 lung
  TGI: > 100 µM
NCI/ADR-RES ovarian
  TGI: > 100 µM
OVCAR-3 ovarian
  TGI: > 100 µM
OVCAR-4 ovarian
  TGI: > 100 µM
OVCAR-5 ovarian
  TGI: 93.5 µM
OVCAR-8 ovarian
  TGI: > 100 µM
PC-3 prostate
  TGI: > 100 µM
RPMI-8226 leukemia
  TGI: > 100 µM
RXF 393 renal
  TGI: > 100 µM
SF-268 CNS
  TGI: > 100 µM
SF-295 CNS
  TGI: > 100 µM
SF-539 CNS
  TGI: > 100 µM
SK-MEL-2 melanoma
  TGI: > 100 µM
SK-MEL-28 melanoma
  TGI: > 100 µM
SK-MEL-5 melanoma
  TGI: 29.1 µM
SK-OV-3 ovarian
  TGI: > 100 µM
SN12C renal
  TGI: 75.7 µM
SNB-19 CNS
  TGI: 75.7 µM
SNB-75 CNS
  TGI: > 100 µM
SR leukemia
  TGI: > 100 µM
SW-620 colon
  TGI: > 100 µM
T-47D breast
  TGI: 60.2 µM
TK-10 renal
  TGI: 78.7 µM
U251 CNS
  TGI: > 100 µM
UACC-257 melanoma
  TGI: 82.1 µM
UACC-62 melanoma
  TGI: 80 µM
UO-31 renal
  TGI: 70.7 µM

## COc1ccccc1NC(=S)N=Nc1c(O)[nH]c2ccccc12
786-0 renal
  TGI: > 100 µM
A498 renal
  TGI: > 100 µM
A549 NSCLC
  TGI: > 100 µM
ACHN renal
  TGI: > 100 µM
CAKI-1 renal
  TGI: > 100 µM
CCRF-CEM leukemia
  TGI: > 100 µM
COLO 205 colon
  TGI: > 100 µM
DU-145 prostate
  TGI: 13.7 µM
EKVX NSCLC
  TGI: > 100 µM
HCC-2998 colon
  TGI: > 100 µM
HCT-116 colon
  TGI: > 100 µM
HCT-15 colon
  TGI: > 100 µM
HOP-62 NSCLC
  TGI: > 100 µM
HOP-92 NSCLC
  TGI: > 100 µM
HS 578T breast
  TGI: > 100 µM
HT29 colon
  TGI: > 100 µM
IGROV1 ovarian
  TGI: > 100 µM
K-562 leukemia
  TGI: > 100 µM
KM12 colon
  TGI: > 100 µM
LOX IMVI melanoma
  TGI: > 100 µM
M14 melanoma
  TGI: > 100 µM
MALME-3M melanoma
  TGI: > 100 µM
MCF7 breast
  TGI: > 100 µM
MDA-MB-231 breast
  TGI: > 100 µM
MDA-MB-435
  TGI: > 100 µM
MDA-N
  TGI: > 100 µM
MOLT-4 leukemia
  TGI: > 100 µM
NCI-H226 lung
  TGI: > 100 µM
NCI-H23 lung
  TGI: > 100 µM
NCI-H460 lung
  TGI: > 100 µM
NCI-H522 lung
  TGI: > 100 µM
NCI/ADR-RES ovarian
  TGI: > 100 µM
OVCAR-3 ovarian
  TGI: > 100 µM
OVCAR-4 ovarian
  TGI: > 100 µM
OVCAR-5 ovarian
  TGI: > 100 µM
OVCAR-8 ovarian
  TGI: > 100 µM
PC-3 prostate
  TGI: > 100 µM
RPMI-8226 leukemia
  TGI: > 100 µM
RXF 393 renal
  TGI: > 100 µM
SF-268 CNS
  TGI: 13.5 µM
SF-295 CNS
  TGI: > 100 µM
SF-539 CNS
  TGI: > 100 µM
SK-MEL-2 melanoma
  TGI: > 100 µM
SK-MEL-28 melanoma
  TGI: 23.6 µM
SK-MEL-5 melanoma
  TGI: > 100 µM
SK-OV-3 ovarian
  TGI: > 100 µM
SN12C renal
  TGI: > 100 µM
SNB-19 CNS
  TGI: > 100 µM
SNB-75 CNS
  TGI: > 100 µM
SR leukemia
  TGI: > 100 µM
SW-620 colon
  TGI: > 100 µM
T-47D breast
  TGI: > 100 µM
TK-10 renal
  TGI: > 100 µM
U251 CNS
  TGI: > 100 µM
UACC-257 melanoma
  TGI: > 100 µM
UACC-62 melanoma
  TGI: > 100 µM
UO-31 renal
  TGI: > 100 µM
